Structures can show the parent of a compound that is named as a salt.
Tested on: hair cells
Assay: Hair cell toxicity assay in zebrafish (neomycin-induced hair cell death, DASPEI staining of neuromasts)
Type: in vivo
Conditions: Danio rerio; for EC50: zebrafish larvae 5-7 dpf, 1 h pre-treatment, then 200 micromolar neomycin + test compound 30 min, read-out: HC50 (concentration that would produce 50% hair cell survival); for Emax at 8.3 µM: maximum observed @ 8.3 μM test compound; for Emax at 25 µM: maximum observed @ 25 μM test compound
Summary of the method: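 Zebrafish larvae 5-7 dpf pre-treated 1 h with compound (0.010-25 μM), then 30 min with 200 μM neomycin plus compound. DASPEI stained 10 neuromasts per fish, scored 0-2 (total 0-20), normalised to vehicle controls as % hair cell survival. HC50 linearly interpolated if survival reached ≥50%; HCmax is maximum survival.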

[1] = 200 micromolar neomycin, read-out: Max HC Protection (HCmax, % hair cell survival)

| Structure (SMILES) | EC50 [µM] | Emax at 8.3 µM [1] [%] | Emax at 25 µM [1] [%] | also measured |
| --- | --- | --- | --- | --- |
| CCN1CCc2c(sc(NC(=O)Nc3ccc(I)cc3)c2C(N)=O)C1 [Example 224, 6-ethyl-2-{[(4-iodophenyl)carbamoyl]amino}-4H,5H,6H,7H-thieno[2,3-c]pyridine-3-carboxamide] | 1 to 10 | – | – | Emax at 12.5 µM (maximum observed @ 12.5 μM test compound, 200 micromolar neomycin, read-out: Max HC Protection (HCmax, % hair cell survival)): 94% |
| CCN1CCc2c(sc(NC(=O)Nc3ccc(Cc4ccccc4)cc3)c2C(N)=O)C1 [Example 226, 2-{[(4-benzylphenyl)carbamoyl]amino}-6-ethyl-4H,5H,6H,7H-thieno[2,3-c]pyridine-3-carboxamide] | 1 to 10 | 68 | – | – |
| CC[N+]1(C)CCc2c(sc(NC(N)=O)c2C(N)=O)C1 (stereo not drawn) [Example 184, 3-Carbamoyl-6-ethyl-6-methyl-2-ureido-4,5,6,7-tetrahydrothieno[2,3-c]pyridin-6-ium iodide] | – | – | 30 | – |
| NC(=O)c1c(NC(=O)Nc2ccc(Cl)cc2)sc2c1CC[N+](CCCO)(CCCO)C2 [Example 201, 3-Carbamoyl-2-[3-(4-chlorophenyl)ureido]-6,6-bis(3-hydroxypropyl)-4,5,6,7-tetrahydrothieno[2,3-c]pyridin-6-ium chloride] | < 1 | – | – | Emax at 2.5 µM (maximum observed @ 2.5 μM test compound, 200 micromolar neomycin, read-out: Max HC Protection (HCmax, % hair cell survival)): 102% |
| CN(C)C1CCc2c(sc(NC(=O)Nc3ccc(Cl)cc3)c2C(N)=O)C1 (stereo not drawn) [Example 42, 2-[3-(4-Chlorophenyl)ureido]-6-(dimethylamino)-4,5,6,7-tetrahydrobenzo[b]thiophene-3-carboxamide hydrochloride] | 1 to 10 | – | 90 | – |
| CC[N+]1(C)CCc2c(sc(NC(=O)NCc3ccc(Cl)cc3)c2C(N)=O)C1 (stereo not drawn) [Example 148, 3-Carbamoyl-2-[3-(4-chlorobenzyl)ureido]-6-ethyl-6-methyl-4,5,6,7-tetrahydrothieno[2,3-c]pyridin-6-ium iodide] | > 10 | – | 51 | – |
| CCN1CCc2c(sc(NC(=O)Nc3cccnc3)c2C(N)=O)C1 [Example 69, 6-Ethyl-2-[3-(pyridin-3-yl)ureido]-4,5,6,7-tetrahydrothieno[2,3-c]pyridine-3-carboxamide dihydrochloride] | – | – | 12 | – |
| CN(C)C(=O)CCN1CCc2c(sc(NC(=O)Nc3ccc(Cl)cc3)c2C(N)=O)C1 [Example 53, 2-[3-(4-Chlorophenyl)ureido]-6-[3-(dimethylamino)-3-oxopropyl]-4,5,6,7-tetrahydrothieno[2,3-c]pyridine-3-carboxamide hydrochloride] | 1 to 10 | – | 103 | – |
| CCN1CCc2c(sc(NC(=O)Nc3ccc(CC(=O)OC(C)(C)C)cc3)c2C(N)=O)C1 [Example 30, tert-Butyl 2-{4-[3-(3-carbamoyl-6-ethyl-4,5,6,7-tetrahydrothieno[2,3-c]pyridin-2-yl)ureido]phenyl}acetate] | 1 to 10 | – | 58 | – |
| CCN1CCc2c(sc(NC(=O)Nc3cncc4ccccc34)c2C(N)=O)C1 [Example 81, 6-Ethyl-2-[3-(isoquinolin-4-yl)ureido]-4,5,6,7-tetrahydrothieno[2,3-c]pyridine-3-carboxamide dihydrochloride] | – | 32 | – | – |
| CCN1CCc2c(sc(NC(=O)Nc3ccc(OC)cc3)c2C(N)=O)C1 [Example 230, 6-ethyl-2-{[(4-methoxyphenyl)carbamoyl]amino}-4H,5H,6H,7H-thieno[2,3-c]pyridine-3-carboxamide] | – | – | 48 | – |
| CC(C)(C)OC(=O)CCN1CCc2c(sc(NC(=O)Nc3ccc(Cl)cc3)c2C(N)=O)C1 [Example 51, tert-Butyl 3-{3-Carbamoyl-2-[3-(4-chlorophenyl)ureido]-4,5-dihydrothieno[2,3-c]pyridin-6(7H)-yl}propanoate] | 1 to 10 | 55 | – | – |
| CC[N+]1(C)CCc2c(sc(NC(=O)Nc3ccc(Cl)cc3)c2C(=O)N2CCOCC2)C1 (stereo not drawn) [Example 179, 2-[3-(4-Chlorophenyl)ureido]-6-ethyl-6-methyl-3-(morpholine-4-carbonyl)-4,5,6,7-tetrahydrothieno[2,3-c]pyridin-6-ium chloride] | – | 38 | – | – |

— US9416141B2 (University of Washington through its Center for …, priority 2012, dated 2016)
